Experimental data as given in patent publication US20090023773A1, “COMPOSITIONS AND METHODS FOR MODULATING GATED ION CHANNELS” (PainCeptor Pharma Corporation, priority 2007, published 2009).

Molecular target: T1, hASIC2a/3 steady state (window) current (Homo sapiens, UniProt Q16515+Q9UHC3)
T1 construct: expressed in transfected cells; host or cells: Xenopus laevis oocytes, cRNA microinjection, 1:1 mass ratio
T1 sequence (Q16515 1-512): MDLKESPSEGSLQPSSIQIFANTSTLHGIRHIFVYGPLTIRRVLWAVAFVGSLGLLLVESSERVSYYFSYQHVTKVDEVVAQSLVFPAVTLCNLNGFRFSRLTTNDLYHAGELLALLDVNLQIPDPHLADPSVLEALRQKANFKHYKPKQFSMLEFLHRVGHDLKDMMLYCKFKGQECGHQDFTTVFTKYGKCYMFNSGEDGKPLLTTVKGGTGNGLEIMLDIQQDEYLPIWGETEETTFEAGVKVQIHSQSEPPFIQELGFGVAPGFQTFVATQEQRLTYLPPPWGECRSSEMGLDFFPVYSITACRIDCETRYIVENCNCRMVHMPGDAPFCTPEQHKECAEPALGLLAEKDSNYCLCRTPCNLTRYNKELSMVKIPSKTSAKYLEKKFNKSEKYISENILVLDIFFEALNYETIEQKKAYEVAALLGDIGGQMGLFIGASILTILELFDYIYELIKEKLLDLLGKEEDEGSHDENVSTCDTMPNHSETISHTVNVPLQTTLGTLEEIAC
T1 sequence (Q9UHC3 1-531): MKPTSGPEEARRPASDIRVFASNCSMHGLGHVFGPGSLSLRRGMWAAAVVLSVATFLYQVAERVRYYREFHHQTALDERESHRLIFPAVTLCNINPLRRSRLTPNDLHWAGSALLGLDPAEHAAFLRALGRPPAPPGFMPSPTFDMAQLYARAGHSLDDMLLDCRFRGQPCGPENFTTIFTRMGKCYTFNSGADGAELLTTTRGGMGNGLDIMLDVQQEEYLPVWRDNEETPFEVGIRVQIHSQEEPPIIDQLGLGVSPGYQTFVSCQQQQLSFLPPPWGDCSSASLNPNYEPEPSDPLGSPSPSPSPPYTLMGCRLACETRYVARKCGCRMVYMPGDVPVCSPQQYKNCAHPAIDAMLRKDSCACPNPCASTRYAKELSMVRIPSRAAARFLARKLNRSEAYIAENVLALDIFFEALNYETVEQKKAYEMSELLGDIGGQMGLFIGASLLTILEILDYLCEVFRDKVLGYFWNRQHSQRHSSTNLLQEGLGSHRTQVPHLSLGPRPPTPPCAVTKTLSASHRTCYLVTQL
Test: ASIC2a/3 assay, automated two-electrode voltage clamp in oocytes microinjected with hASIC2a and hASIC3 (Example 2)
Format: cell-based
Settings: 50 μM, perfusion at pH 6.5; FIG. 8
Procedure: The ASIC2a/3 assay involves methods and procedures commonly in use and have been extensively described in the literature.
Briefly, a mature female frog is placed on its back after anesthesia, 20 min in 0.1% (w/v) Tricaine (Sigma), and incision is made on the lower abdomen through the skin, muscle and into the peritoneum. Lobes of ovaries are pulled out with forceps, cut and placed in a solution of Ca^2+-free Barth's with 1% (w/v) collagenase Type I (Sigma) added, for 90 minutes. The dissociated eggs are then washed with complete Barth's, supplementd with […] Gentamycin.
Plasmids containing cDNA for ASIC2a+ASIC3 are linearized and used for cRNA synthesis. The synthesis is done according to the protocol insert of the synthesis kit (e.g. Message Machine, Ambion). The final resuspension of the cRNA is made to provide a concentration of 1 μg/μL. The cDNA's for hASIC2a and hASIC3 are mixed with a 1:1 mass ratio and injected at […] per oocyte. Micro-injected oocytes start expressing hASIC2a3 specific current after 24 h.
The oocytes micro-injected with hASIC2a and hASIC3 cRNA's are placed in the recording chambers of the automated rig and then impaled with the voltage and current micro-electrodes. […] The voltage and current for each oocyte is recorded in one pass during both applications for later analysis. […]

Cc1ccc(-c2nc(Nc3ccc(C(=O)O)cc3)c3cc(Cl)ccc3n2)cc1 [Compound 124]
inhibition of the ASIC 2a/3 current: specific inhibition
